Entries after “also recorded” stand apart in the source; their conditions may differ.
Assays:
MU89 melanoma cell line = assay: Antibody staining and flow cytometry (intracellular Melan-A/MART-1, gp100, TRP-2; surface MHC Class I/II); format: cell-based, human
U-87 MG glioma cell line = assay: Antibody staining and flow cytometry (intracellular gp100; surface MHC Class I); format: cell-based, human
Method: (§1) Cells were fixed with 1% formaldehyde, permeabilized with 0.1% saponin, stained with monoclonal antibodies to melanocyte antigens. Antibodies were obtained with specificity for: MART-1 from Vector Labs (Burlingame, Calif.); gp100 HMB45 from DakoCytomation (Carpinteria, Calif.) and then visualized with goat anti-mouse FITC-conjugated secondary antibody from Invitrogen (Fredrick, Md.). The level of EGFP was determined by flow cytometry of unfixed cells that were washed and resuspended in 1×PBS.
(§2) Cells were plated at a density of 1×10^5 in 1 ml of medium in a 24-well plate and cultured for varying times as indicated in results. […] After incubation, cells were collected by trypsinization and then evaluated by flow cytometry.
(§3) Intracellular staining and flow cytometric analyses of cytoplasmic Melan-A/MART-1, and gp100 expression were performed as described previously. Cells were fixed with 1% formaldehyde, permeabilized with 0.1% saponin, stained with monoclonal antibodies to melanocyte antigens. Antibodies were obtained with specificity for: Melan-A/MART-1 from Vector Labs (Burlingame, Calif.); gp100/HMB45 from DakoCytomation (Carpinteria, Calif.) and then visualized with goat anti-mouse FITC-conjugated secondary antibody from Invitrogen (Frederick, Md.). The level of EGFP was determined by flow cytometry of unfixed cells washed and resuspended in 1×PBS. Surface staining of MHC Class I was carried out using the antibody W6/32 on cells harvested with Cell Stripper from MediaTech Inc. (Manassas, Va.) and carried out on ice.

[1] = test system: B16 murine melanoma cell line; assay: Antibody staining and flow cytometry (intracellular gp100, TRP-2; surface Class I with H2kb antibody); format: cell-based, mouse; conditions: 3 days, 17-AEP 0.5, PU-H71 0.15, CCT018159 2.5 μg/ml
Excerpt: To further evaluate enhancement of immune recognition of cancer cells by inhibition of Hsp90 function, it was shown that a total of twelve different Hsp90 inhibitors were active in several molecular and cellular assays on a series of cell lines, including eleven human melanomas, the murine B16 melanoma, and two human gliomas. […] The melanomas all express varying levels of differentiation antigens Melan-A/MART-1, gp100 and TRP-2, as well as the MHC-Class I antigen (as evidenced by W6/32 antibody staining) that is required for T cell recognition of the tumor cells. Each of these antigens is enhanced by all of the Hsp90 inhibitors. […] Similar to the human counterparts, the B16 mouse tumor also can be induced to express enhanced antigen levels upon 3-day exposure to each of the Hsp90 inhibitors (Table 16). The mouse H-2 Class I antigen is likewise induced by the Hsp90 inhibitors.
General culture conditions for cell propagation and the origins of most of the melanoma cell lines have been previously described. Melanoma cells were cultured in DMEM with 10% FBS. The glioma cell lines U87 MG and U118 MG were obtained from the American Type Culture Collection (ATCC). The B16 murine melanoma cell line was provided by Dr. Andrew Hurwitz and has been previously described. The T cell receptor (TCR)-negative Jurkat T cell line derivative J.RT3-T3.5 was obtained from ATCC. The construction of the J.RT3-T3.5 cell line expressing a Melan-A/MART-1 specific TCR has been described previously. T cells were cultured in RPMI with 10% FBS. IFN-beta-1a (Avonex) was obtained from Biogen-Idec (Cambridge, Mass.) and reconstituted according to the manufacturer's recommendations. The Hsp90 inhibitor radicicol was purchased from A.G. Scientific (San Diego, Calif.). Novobiocin was ordered from BioMol (Plymouth Meeting, Pa.). 17-DMAG was obtained from LC laboratories (Woburn, Mass.). 17-AEP-AP was purchased from InVivoGen (San Diego, Calif.). […] Gedunin, CCT018159, and celastrol were purchased from Tocris (Ellisville, Mo.). Selleck Chemicals (Houston, Tex.) provided NVP-AUY922 and BIIB021.
Cells were plated at a density of 1×10^5 in 1 ml of medium in a 24-well plate and cultured for varying times as indicated in results. Typically, 3 days of culture in the presence of Hsp90 inhibitors was optimal for the functional studies performed. After incubation, cells were collected by trypsinization and then evaluated by flow cytometry.
as §3

MUX melanoma cell line = assay: Antibody staining and flow cytometry (intracellular Melan-A/MART-1, gp100, TRP-2; surface MHC Class I); format: cell-based, human; conditions: MUX
Method: as §1, §2, §3
(§4) Cell were seeded at 1×10^6 cells in a T25 flask with 10 ml of media for the 4 day IFN-beta pre-treatments. Cells were then harvested and plated in 24 well plate at 1×10^5 cells per well in 1 ml of media for 3 day treatments.
(§5) For surface staining of HLA Class I and II antigens, cells were harvested using CellStripper™ from Mediatech (Manassas, Va.). All staining steps were performed on ice. Following a first incubation with antibody to Class I (W6/32) or Class II (L243) for 30 minutes. Stained cells were washed twice with cold PBS and then stained with a goat anti-mouse FITC secondary antibody to allow for quantitative analysis by flow cytometry. For evaluation of cytoplasmic antigens, including Melan-A/MART-1 and gp100, cells were first fixed in paraformaldehyde and permeabilized with saponin as previously described. Staining for cytoplasmic antigens was carried out at room temperature (22° C.).

A375 melanoma cell line = assay: as above; format: cell-based, human
Method: as §1, §2, §3, §4, §5

[2] = MU89, 3 days, IFN-beta 5000 Units/ml, 17-AEP 1.0, PU-H71 0.3, CCT018159 10.0 μg/ml
[3] = MU89, three days, IFN-β 5000 Units/ml, IFN-γ 100 ng/ml, PU-H71 0.3 mg/ml
[4] = MU89 cells, Table 20, single agent or simultaneous combination
[5] = U-87 MG, 3 days, IFN-beta 5000 Units/ml, 17-AEP 0.5, PU-H71 0.3, CCT018159 5.0 μg/ml
[6] = 3 days, IFN-beta 5000 Units/ml, 17-AEP 1.0, PU-H71 0.3, CCT018159 10.0 μg/ml
[7] = 3 days, IFN-beta 5000 Units/ml, 17-AEP 0.5, PU-H71 0.15, CCT018159 2.5 μg/ml

Q: Which “Class I, geometric mean of surface staining (W6/32)” value (MU89 melanoma cell line; [2]) does the source give for `CC(C)NCCCn1c(Sc2cc3c(cc2I)OCO3)nc2c(N)ncnc21` [PU-H71] here?
A: Its value is 66.

Q: What about the “MART-1, geometric mean of intracellular staining” value (“MART-1, geometric mean” below) (MU89 melanoma cell line; [2]) of the same compound?
A: The value was 147.

Q: And the “TRP-2, geometric mean of intracellular staining” value (from here on “TRP-2, geometric mean”) (MU89 melanoma cell line; [2])?
A: Its value is 214.

Q: And the “gp100, geometric mean of intracellular staining” value (shortened to “gp100, geometric mean”) (MU89 melanoma cell line; [2])?
A: The value was 381.

Q: What about the “MHC Class I, geometric mean of surface staining (W6/32)” value (“MHC Class I, geometric mean” for short) (MU89 melanoma cell line; MU89, 4 day IFN-β pre-treatment (5000 Units/ml), then 3 days with fresh IFN-β and the labelled HSP90 inhibitor (label IFN-β: no inhibitor), 17-AEP 1, PU-H71 0.3, CCT018159 10 mg/ml) of the same compound?
A: The value was 390.

Q: What about the “MHC Class I, geometric mean” value (MU89 melanoma cell line; MU89, 4 day IFN-β pre-treatment (5000 Units/ml), then 3 days without IFN-β with the labelled HSP90 inhibitor (label IFN-β: no inhibitor), 17-AEP 1, PU-H71 0.3, CCT018159 10 mg/ml) of the same compound?
A: Its value is 307.

Q: What about the “Class I antigen induction, sequential treatment” value (MU89 melanoma cell line; MU89, IFN-beta pre-treatment, then PU-H71 for 3 days (FIG. 22)) of the same compound?
A: Its value is “synergistically enhanced; also recorded: far exceeded what was achieved with either drug alone”.

Q: And the “Class II antigen level, sequential treatment” value (MU89 melanoma cell line; MU89, IFN-gamma for 3 days, subsequently PU-H71 (FIG. 23))?
A: The value was “significantly greater than that achieved with IFN-gamma alone”.

Q: And the “MHC Class I, geometric mean” value (MU89 melanoma cell line; MU89, single agent for 3 days, no IFN-β pre-treatment, IFN-β 5000 Units/ml)?
A: The value was 75.

Q: And the “MHC Class I, geometric mean” value (MU89 melanoma cell line; MU89, three days, IFN-β 5000 Units/ml)?
A: Its value is 66.

Q: What about the “MHC Class I, geometric mean” value (MU89 melanoma cell line; [3]) of the same compound?
A: Its value is 99.

Q: And the “MHC Class II, geometric mean of surface staining (L2443)” value (MU89 melanoma cell line; [3])?
A: Its value is 43.

Q: What about the “L243 (MHC Class II surface staining)” value (MU89 melanoma cell line; [4]) of the same compound?
A: Its value is 4.1.

Q: And the “W6/32 (MHC Class I surface staining)” value (MU89 melanoma cell line; [4])?
A: Its value is 72.1.

Q: What about the “L243 (MHC Class II surface staining)” value (MU89 melanoma cell line; MU89 cells, Table 21, no pre-treatment, treatment as labelled) of the same compound?
A: The value was 5.

Q: And the “L243 (MHC Class II surface staining)” value (MU89 melanoma cell line; MU89 cells, Table 21, pre-treatment IFN-G (3 days), then treatment as labelled)?
A: The value was 338.

Q: What about the “L243 (MHC Class II surface staining)” value (MU89 melanoma cell line; MU89 cells, Table 21, substance given as pre-treatment (3 days) only, no subsequent treatment) of the same compound?
A: The value was 2.

Q: And the “Class II induction by IFN-gamma, combination” value (MU89 melanoma cell line; MU-89, Hsp90 inhibitor together with IFN-gamma)?
A: Its value is “ablation of the IFN-gamma induction of Class II antigen”.

Q: And the “Class I expression, combination” value (MU89 melanoma cell line; MU-89, PU-H71 together with IFN-beta)?
A: Its value is “additive effect”.

Q: And the “Class I induction by IFN-gamma, combination” value (MU89 melanoma cell line; MU-89, PU-H71 together with IFN-gamma)?
A: The value was “not further enhanced”.

Q: What about the “L243 (MHC Class II surface staining)” value (MU89 melanoma cell line; MU-89, single agent) of the same compound?
A: The value was 4.5.

Q: And the “Class I, geometric mean of surface staining (W6/32)” value (U-87 MG glioma cell line; [5])?
A: Its value is 53.

Q: And the “gp100, geometric mean” value (U-87 MG glioma cell line; [5])?
A: Its value is 66.

Q: And the “MHC Class I, geometric mean” value (U-87 MG glioma cell line; U-87 glioma, three days, IFN-β 5000 Units/ml, PU-H71 0.075-0.3)?
A: The value was 71.

Q: What about the “Class I, geometric mean of surface staining (H2kb)” value [1] of the same compound?
A: The value was 14.

Q: And the “TRP-2, geometric mean” value [1]?
A: Its value is 360.

Q: And the “gp100, geometric mean” value [1]?
A: Its value is 595.

Q: What about the “Class I, geometric mean of surface staining (W6/32)” value (MUX melanoma cell line; [6]) of the same compound?
A: Its value is 212.

Q: What about the “MART-1, geometric mean” value (MUX melanoma cell line; [6]) of the same compound?
A: The value was 19.

Q: What about the “TRP-2, geometric mean” value (MUX melanoma cell line; [6]) of the same compound?
A: Its value is 41.

Q: And the “gp100, geometric mean” value (MUX melanoma cell line; [6])?
A: Its value is 32.

Q: What about the “MHC Class I, geometric mean” value (MUX melanoma cell line; 4 day IFN-β pre-treatment (5000 Units/ml), then 3 days with fresh IFN-β and the labelled HSP90 inhibitor (label IFN-β: no inhibitor), 17-AEP 1, PU-H71 0.3, CCT018159 10 mg/ml) of the same compound?
A: Its value is 579.

Q: And the “MHC Class I, geometric mean” value (MUX melanoma cell line; 4 day IFN-β pre-treatment (5000 Units/ml), then 3 days without IFN-β with the labelled HSP90 inhibitor (label IFN-β: no inhibitor), 17-AEP 1, PU-H71 0.3, CCT018159 10 mg/ml)?
A: The value was 477.

Q: What about the “MHC Class I, geometric mean” value (MUX melanoma cell line; single agent for 3 days, no IFN-β pre-treatment, IFN-β 5000 Units/ml, 17-AEP 1 μg/ml, PU-H71 0.3 μg/ml, CCT018159 10 μg/ml) of the same compound?
A: The value was 282.

Q: What about the “MHC Class I, geometric mean” value (MUX melanoma cell line; three days, IFN-β 5000 Units/ml, 17-AEP 1 μg/ml, PU-H71 0.3 μg/ml, CCT018159 10 μg/ml) of the same compound?
A: The value was 212.

Q: What about the “Class I, geometric mean of surface staining (W6/32)” value (A375 melanoma cell line; [7]) of the same compound?
A: Its value is 71.

Q: And the “MART-1, geometric mean” value (A375 melanoma cell line; [7])?
A: The value was 11.

Q: And the “TRP-2, geometric mean” value (A375 melanoma cell line; [7])?
A: The value was 26.

Q: And the “gp100, geometric mean” value (A375 melanoma cell line; [7])?
A: Its value is 24.

Q: And the “MHC Class I, geometric mean” value (A375 melanoma cell line; 4 day IFN-β pre-treatment (5000 Units/ml), then 3 days with fresh IFN-β and the labelled HSP90 inhibitor (label IFN-β: no inhibitor), 17-AEP 0.5, PU-H71 0.15, CCT018159 2.5)?
A: The value was 226.

Q: What about the “MHC Class I, geometric mean” value (A375 melanoma cell line; 4 day IFN-β pre-treatment (5000 Units/ml), then 3 days without IFN-β with the labelled HSP90 inhibitor (label IFN-β: no inhibitor), 17-AEP 0.5, PU-H71 0.15, CCT018159 2.5) of the same compound?
A: The value was 174.

Q: And the “MHC Class I, geometric mean” value (A375 melanoma cell line; single agent for 3 days, no IFN-β pre-treatment, IFN-β 5000 Units/ml, 17-AEP 0.5, PU-H71 […], CCT018159 2.5)?
A: Its value is 131.

Q: What about the “MHC Class I, geometric mean” value (A375 melanoma cell line; three days, IFN-β 5000 Units/ml, 17-AEP 0.5, PU-H71 […], CCT018159 2.5) of the same compound?
A: The value was 71.
